From patent publication US20230277597A1, “HAPLOIDENTICAL MIXED CHIMERISM FOR TREATING AUTOIMMUNE DISEASES” (CITY OF HOPE, priority 2020, published 2023)

System: Foxp3^+ Treg cells
Test: In vivo Treg depletion with diphtheria toxin in Haplo-MC NOD mice carrying Foxp3^DTR
Parameters: species or system mouse
Conditions: for mice insulitis free in all the evaluated islets: 3 weeks after first injection

diphtheria toxin [DT]
insulitis after depletion of donor-type or host-type Treg cells (DT every 3 days for 21 days, H-2^b/g7 mixed chimeric NOD mice): significant but moderate recurrence of insulitis, without causing hyperglycemia | reduction of donor-type Treg (DT every 3 days for 21 days, donor cells carrying Foxp3^DTR): ~95% | reduction of host-type Treg (DT every 3 days for 21 days, host cells carrying Foxp3^DTR): ~90% | mice insulitis free in all the evaluated islets (donor-type Treg depleted chimeric mice): 50% | mice insulitis free in all the evaluated islets (host-type Treg depleted chimeric mice): 33%
